The results in this text go back to US20260200890A1, “ADAR1 INHIBITORS AND METHODS OF USING THE SAME” (AVAMMUNE THERAPEUTICS INC., priority 2022, published 2026).

The target of the experiment is T1, ADAR1 (Homo sapiens, UniProt P55265).
T1 construct: endogenous in cells; host or cells: p110 KO A549 dual cells
T1 sequence (P55265 1-1226): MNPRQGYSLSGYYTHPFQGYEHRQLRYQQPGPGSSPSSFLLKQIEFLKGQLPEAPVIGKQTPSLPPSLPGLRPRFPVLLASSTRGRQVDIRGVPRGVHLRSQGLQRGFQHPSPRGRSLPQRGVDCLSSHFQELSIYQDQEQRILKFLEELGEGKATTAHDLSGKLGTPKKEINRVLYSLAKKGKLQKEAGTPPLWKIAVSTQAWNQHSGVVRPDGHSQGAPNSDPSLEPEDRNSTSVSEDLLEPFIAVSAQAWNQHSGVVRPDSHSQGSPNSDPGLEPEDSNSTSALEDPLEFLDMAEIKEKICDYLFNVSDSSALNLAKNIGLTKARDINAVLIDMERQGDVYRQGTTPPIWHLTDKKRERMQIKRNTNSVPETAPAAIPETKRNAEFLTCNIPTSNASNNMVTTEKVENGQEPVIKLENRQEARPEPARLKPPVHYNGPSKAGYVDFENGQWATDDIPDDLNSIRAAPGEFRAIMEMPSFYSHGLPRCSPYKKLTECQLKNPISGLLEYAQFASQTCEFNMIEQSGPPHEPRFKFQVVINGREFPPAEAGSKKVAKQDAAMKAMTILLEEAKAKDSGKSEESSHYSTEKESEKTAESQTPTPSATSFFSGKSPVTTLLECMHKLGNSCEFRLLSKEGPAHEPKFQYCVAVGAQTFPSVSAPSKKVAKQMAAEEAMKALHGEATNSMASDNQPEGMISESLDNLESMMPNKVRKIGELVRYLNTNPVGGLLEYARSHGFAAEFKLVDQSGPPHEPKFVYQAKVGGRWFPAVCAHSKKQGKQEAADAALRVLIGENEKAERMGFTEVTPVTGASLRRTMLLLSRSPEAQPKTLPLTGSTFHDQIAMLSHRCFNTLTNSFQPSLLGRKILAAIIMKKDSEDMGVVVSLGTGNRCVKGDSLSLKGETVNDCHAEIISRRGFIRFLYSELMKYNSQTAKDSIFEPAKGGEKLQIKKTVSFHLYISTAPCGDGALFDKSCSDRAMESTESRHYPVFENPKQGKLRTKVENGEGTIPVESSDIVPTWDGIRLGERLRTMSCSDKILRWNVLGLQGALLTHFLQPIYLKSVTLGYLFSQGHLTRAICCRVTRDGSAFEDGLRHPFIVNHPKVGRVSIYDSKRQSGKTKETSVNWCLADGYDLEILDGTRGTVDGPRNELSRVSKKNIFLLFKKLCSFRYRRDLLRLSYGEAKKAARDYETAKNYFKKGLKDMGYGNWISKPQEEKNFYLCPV
Nature of the experiment: ADAR1 Inhibition Assay (IFN fold-induction, Quanti-Luc luminescence, p110 KO A549 dual cells). It is filed as cell-based. To be noted: IFN fold-induction vs DMSO, 24 and 48 h. An outline of the steps:
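p110 KO A549 dual cells (20,000/well) in supplemented DMEM, treated next day with compound at 1% final DMSO for 24 and 48 h at 37 °C, 5% CO2. Supernatant luminescence read with Quanti-Luc; IFN fold-induction = sample RLU/mean DMSO RLU, used for EC50.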

`CCOC(=O)c1cc(-c2ccccc2)sc1NC(=O)C(C)OC(=O)c1cccc(NS(C)(=O)=O)c1` (stereo not shown) [Compound 195] returned an EC50 of more than 100 µM.
`CCOC(=O)c1cc(Cc2ccccc2)sc1NC(=O)COC(=O)c1cccc(NS(C)(=O)=O)c1` [Compound 196]: the EC50 is more than 100 µM.
The value for `CCOC(=O)c1cc(-c2ccccc2C#N)sc1NC(=O)COC(=O)c1cccc(NS(C)(=O)=O)c1` [Compound 197] was more than 100 µM.
`CCOC(=O)c1cc(-c2ccc(N3CCNCC3)cc2)sc1NC(=O)COC(=O)c1cccc(NS(C)(=O)=O)c1` [Compound 198] returned an EC50 of more than 100 µM.
The value for `CCOC(=O)c1cc(-c2ccccc2)sc1NC(=O)COC(=O)c1cccc(N(C)C)c1` [Compound 199] was more than 100 µM; that for `CS(=O)(=O)Nc1cccc(C(=O)OCC(=O)n2cnc3cnc(N)nc32)c1` [Compound 200] was more than 100 µM; that for `CCOC(=O)c1cc(-c2ccccc2OC(F)(F)F)sc1NC(=O)COC(=O)c1cccc(NS(C)(=O)=O)c1` [Compound 201] was more than 100 µM.
The value for `CCOC(=O)c1cc(-c2cccc(OC(F)(F)F)c2)sc1NC(=O)COC(=O)c1cccc(NS(C)(=O)=O)c1` [Compound 202] was more than 100 µM; that for `CC(C)(C)OC(=O)COC(=O)c1cc(-c2ccccc2)sc1NC(=O)COC(=O)c1cccc(NS(C)(=O)=O)c1` [Compound 203] was more than 100 µM.
Take `CCOC(=O)c1cc(C)sc1NC(=O)COC(=O)c1cccc(NS(C)(=O)=O)c1` [Compound 204]: the EC50 was more than 100 µM.
`CCOC(=O)c1cc(-c2ccc(OC)cc2)sc1NC(=O)COC(=O)c1cccc(NS(C)(=O)=O)c1` [Compound 205] returned an EC50 of more than 100 µM.
The value for `CCOC(=O)c1nc(-c2ccccc2)sc1NC(=O)C1CCN(C(=O)c2cccc(NS(C)(=O)=O)c2)C1` (stereo not shown) [Compound 206] was more than 100 µM.
Regarding `CCOC(=O)c1cc(-c2ccccc2)sc1NC(=O)COCc1cccc(NS(C)(=O)=O)c1` [Compound 207], the EC50 was more than 100 µM.
With `CCOC(=O)c1cc(-c2ccccc2)sc1NC(=O)COC1CCN(C(=O)c2cccc(NS(C)(=O)=O)c2)CC1` [Compound 208], the EC50 was more than 100 µM.
`CS(=O)(=O)Nc1cccc(C(=O)OCC(=O)Nc2sc(-c3ccccc3)cc2C(=O)OCC(=O)O)c1` [Compound 209] gave an EC50 of more than 100 µM.
The value for `CCOC(=O)c1cc(-c2ccccc2)ncc1NC(=O)C1CCN(C(=O)c2cccc(NS(C)(=O)=O)c2)C1` (stereo not shown) [Compound 210] was more than 100 µM; that for `CCOC(=O)c1cc(-c2cccc(OC)c2)sc1NC(=O)COC(=O)c1cccc(NS(C)(=O)=O)c1` [Compound 211] was more than 100 µM; that for `CCOC(=O)c1cc(-c2cccc(C#N)c2)sc1NC(=O)COC(=O)c1cccc(NS(C)(=O)=O)c1` [Compound 212] was more than 100 µM.
The value for `CCOC(=O)c1cc(-c2ccc(N(C)C)cc2)sc1NC(=O)COC(=O)c1cccc(NS(C)(=O)=O)c1` [Compound 213] was more than 100 µM; that for `CCOC(=O)c1c(-c2ccccc2)noc1NC(=O)COC(=O)c1cccc(NS(C)(=O)=O)c1` [Compound 214] was more than 100 µM; that for `CCOC(=O)c1cc(-c2ccccc2)sc1NC(=O)Cn1cnc2cnc(N)nc21` [Compound 215] was more than 100 µM.
For `CCOC(=O)c1cc(-c2ccccc2)sc1NC(=O)Cc1nc(-c2cccc(NS(C)(=O)=O)c2)no1` [Compound 216], the EC50 was more than 100 µM.
For `CON(C)C(=O)c1cc(-c2ccccc2)sc1NC(=O)COC(=O)c1cccc(NS(C)(=O)=O)c1` [Compound 217], the EC50 is more than 100 µM.
The value for `CCOC(=O)c1cc(-c2ccc(O)cc2)sc1NC(=O)COC(=O)c1cccc(NS(C)(=O)=O)c1` [Compound 218] was more than 100 µM; that for `CCOC(=O)c1cc(-c2ccccc2)sc1NC(=O)c1nnc(-c2cccc(NS(C)(=O)=O)c2)o1` [Compound 219] was not above 25 µM.
For the molecule `CS(=O)(=O)Nc1cccc(C(=O)OCC(=O)N2CCN(c3ccccc3)C2=S)c1` [Compound 221], the EC50 was more than 100 µM.
The value for `CCOC(=O)c1cc(-c2ccccc2)sc1NC(=O)c1nnc(-c2cccc(NS(C)(=O)=O)c2)s1` [Compound 222] was more than 100 µM; that for `CS(=O)(=O)Nc1cccc(C(=O)OCC(=O)Nc2sc(-c3ccccc3)cc2C(=O)OCCOCc2ccccc2)c1` [Compound 223] was more than 100 µM.
The figure for `CCOC(=O)c1cc(-c2ccccc2)sc1NC(=O)C1CN(C(=O)c2cccc(NS(C)(=O)=O)c2)CCO1` (stereo not shown) [Compound 224] is more than 100 µM.
`CCOC(=O)c1cc(-c2ccccc2)sc1NC(=O)Cn1cnc2cnc(NS(C)(=O)=O)nc21` [Compound 225] returned an EC50 of more than 100 µM.
On to `CCOC(=O)c1cc(-c2ccc(C(=O)O)cc2)sc1NC(=O)COC(=O)c1cccc(NS(C)(=O)=O)c1` [Compound 226], for which the EC50 was more than 100 µM.
The molecule `CCOC(=O)c1cc(-c2ccccc2)sc1NC(=O)C1CCN(S(=O)(=O)c2cccc(NS(C)(=O)=O)c2)C1` (stereo not shown) [Compound 227] gave a concentration giving a half-maximal response (EC50) of more than 100 µM.
Regarding `CCOC(=O)c1cc(-c2ccccc2)sc1NC(=O)CCOC(=O)c1cccc(NS(C)(=O)=O)c1` [Compound 229], the EC50 is more than 100 µM.
The figure for `CCOC(=O)c1cc(C2CC2)sc1NC(=O)COC(=O)c1cccc(NS(C)(=O)=O)c1` [Compound 230] is more than 100 µM; for `CCOC(=O)c1cc(-c2ccccc2)sc1NC(=O)C(C)(C)Nc1cccc(NS(C)(=O)=O)c1` [Compound 231] it is more than 100 µM; for `CCOC(=O)c1cc(-c2ccccc2)sc1NC(=O)CNS(=O)(=O)c1cccc(NS(C)(=O)=O)c1` [Compound 232] it is more than 100 µM.
The value for `CCOC(=O)c1cc(-c2ccccc2)sc1N1C(=O)N(c2cccc(NS(C)(=O)=O)c2)C(C)(C)C1=O` [Compound 233] was more than 100 µM; that for `CCOC(=O)c1cc(-c2ccccc2)sc1NC(=O)CN1C(=O)c2ccc(NS(C)(=O)=O)cc2C1=O` [Compound 234] was more than 100 µM.
The figure for `CCOc1nc(NC(=O)COC(=O)c2cccc(NS(C)(=O)=O)c2)ncc1-c1ccccc1` [Compound 235] is more than 100 µM; for `CCOC(=O)c1cccc2nc(NC(=O)COC(=O)c3cccc(NS(C)(=O)=O)c3)sc12` [Compound 236] it is more than 100 µM; for `CCOC(=O)c1cc(-c2ccccc2)sc1NC(=O)CCN(C(C)=O)c1cccc(N(C(C)=O)S(C)(=O)=O)c1` [Compound 237] it is more than 100 µM.
For `CCOC(=O)c1cc(-c2ccccc2)sc1NC(=O)CN1C(=O)CN(C(=O)c2cccc(NS(C)(=O)=O)c2)C1=O` [Compound 238], the EC50 is more than 100 µM.
The value for `CCOC(=O)c1cc(-c2ccccc2)sc1NC(=O)CN1C(=O)CN(S(C)(=O)=O)C1=O` [Compound 239] was more than 100 µM; that for `CCOC(=O)c1cc(-c2ccccc2)sc1NC(=O)COC(C)c1cccc(NS(C)(=O)=O)c1` (stereo not shown) [Compound 240] was more than 100 µM.
The figure for `CCOC(=O)c1cc(-c2ccccc2)sc1NC(=O)Cn1ncc2ccc(NS(C)(=O)=O)cc21` [Compound 242] is more than 100 µM; for `CCOC(=O)c1c(NC(=O)COC(=O)c2cccc(NS(C)(=O)=O)c2)sc2ccccc12` [Compound 243] it is more than 100 µM.
The figure for `CCOC(=O)c1cc(-c2ccccc2)sc1NC(=O)c1coc(-c2cccc(NS(C)(=O)=O)c2)n1` [Compound 244] is more than 100 µM.
As to `CCOC(=O)c1nc(-c2ccccc2)ccc1NC(=O)COC(=O)c1cccc(NS(C)(=O)=O)c1` [Compound 245], the EC50 was more than 100 µM.
Turning to `CCOC(=O)c1cc(-c2ccccc2)sc1NC(=O)c1cnc(-c2cccc(NS(C)(=O)=O)c2)s1` [Compound 246], the EC50 is more than 100 µM.
`CCOC(=O)c1cc(NC(=O)COC(=O)c2cccc(NS(C)(=O)=O)c2)sc1-c1ccccc1` [Compound 247] displayed an EC50 of more than 100 µM.
Consider `CCOC(=O)c1cc(-c2ccccc2)sc1NC(=O)c1cnc(-c2cccc(NS(C)(=O)=O)c2)o1` [Compound 248], for which the EC50 was more than 100 µM.
Consider `CCOC(=O)c1cc(NC(=O)COC(=O)c2cccc(NS(C)(=O)=O)c2)ncc1-c1ccccc1` [Compound 249], for which the EC50 is more than 100 µM.

As a reminder, the EC50 is the concentration needed to bring the measured effect to its halfway point. Read a high EC50 as weaker potency.
